Entries after “also recorded” stand apart in the source; their conditions may differ. Read-outs that look alike come from different tables or passages of the source.
Key:
[1] = test system: rats with middle cerebral artery occlusion (MCAO); experiment: Hindlimb placing test after MCAO; type: in vivo, Sprague Dawley rats
Source text: In particular, the MCAO model in Sprague Dawley rats that was utilized in the experiments presented below mimics the conditions in human ischemic stroke. In this model, focal cerebral infarcts were made by permanent occlusion of the proximal right middle cerebral artery (MCA) using a modification of the method of Tamura et al. (No To Shinkei 1986; 38:747-51). Briefly, the temporalis muscle was bisected and reflected through an incision made midway between the eye and the ear canal. The proximal MCA was exposed through a subtemporal craniectomy without removing the zygomatic arch and without transecting the facial nerve.
In this experiment, Sprague Dawley rats were anesthetized, subjected to a surgery resulting in middle cerebral artery occlusion (MCAO), treated with and without 4-aminopyridine and behavioral assessments were performed as described below. Treatment was initiated at 4 weeks after stroke.
Dosing and Treatment: Rats were treated in accordance with the dosing schedule shown in Tables 2A, 2B, 3 and FIG. 2, with each Phase being a two week period of time. A solution of 4-AP was used in this experiment. Dosing was started at 4 weeks after ischemic event. 4-aminopyridine was dissolved in water for injection (WFI, Cellgro) and sterile filtered. Final concentrations of 0.315 mg/mL or 1.0 mg/mL of 4-aminopyridine were delivered at 2 mL/kg by gastric gavage, resulting in final doses of 0.63 mg/kg and 2 mg/kg respectively. Vehicle control treatment was WFI delivered at 2 mL/kg by gastric gavage. This study was divided into three treatment phases (1-3) with each randomized cohort of animals receiving a different dose level during each of the treatment phases. Starting on day 30 after MCAO (Day 30, start of phase 1), the animals received gavage dosing of solutions (2 mL/kg) approximately 12 hours apart, for a total of five doses. The same schedule was repeated with different treatment on Day 44 and Day 58 for phase 2 and 3 of the study, respectively. Animals were not treated during the 10 days between phases (washout period).
Treatment groups: Dosing was started 4 weeks after MCAO surgery. During these 4 weeks, weekly behavioral assessments, as defined below, were performed. Two dose levels of 4-AP plus vehicle control were assessed, with treatment starting at 4 weeks after ischemic event. All dosing was via gastric gavage, volume not to exceed 2 mL/kg. Animals were given the first dose and behavioral assessments were performed starting 60 minutes after dosing. Animals then received the second dose that day at the appropriate time and b.i.d (preferably every 12 hours) thereafter for 2 more days (3 total days of dosing, 5 total doses). One hour after the 5th dose, animals were subjected to behavioral assessments as defined below. Following the final behavioral assessment, drug was withdrawn for 10 or 11 days, behavior was re-assessed, and then animals were re-challenged with a cross-over treatment (Phase 2 of Table 2B) as described in Tables 2A, 2B and 3, followed by the same behavioral testing and dosing regimen. This cross-over was repeated one more time as well (Phase 3 of Table 2B) (see FIG. 2).
Behavioral test details: Behavioral evaluations were done by evaluators blinded to treatment assignment. Blinded assessments of sensorimotor function were performed just prior to MCAO surgery, 24 hours after MCAO surgery and weekly thereafter until the first phase of dosing using limb placing and body swing behavioral tests. As described above, behavioral assessments were timed exactly with dosing times. Animals were tested one hour after the 1st and 5th doses of each phase (i.e., Days 30 and 32 of the first phase, Days 44 and 46 of the second phase; and Days 58 and 60 of the third phase); animals were also tested during the washout periods on Days 42 and 56. Animals were given the first dose, behavioral assessments were performed starting 60 minutes later, and blood was collected 90 minutes after dosing. […]

[2] = 4-aminopyridine plasma levels 90 min after dosing (LC-MS/MS); type: in vivo, Sprague Dawley rats; details: Sprague Dawley, rat, oral, read-out: Mean (SE) 4-aminopyridine Plasma Level
Procedure: Blood sampling: After the on-drug behavior assessments were completed (Days 30, 32, 44, 46, 58 and 60), approximately 300 microliter blood sample was taken exactly 90 min after dosing to assess 4-AP plasma levels at that time. Blood was collected from the saphenous vein of each animal. Blood was collected into K3 EDTA tubes and centrifuged at 10,000 rpm for 10 minutes at 4 degrees C. Plasma was obtained, frozen and stored at approximately −80 C. Samples were analyzed for 4-AP levels. 4-AP concentration was determined using a validated liquid chromatography with tandem mass spectrometric detection method in positive electrospray mode.
Treatment groups: Animals had MCAO surgery and were allowed to recover for 56 days. Animals were then randomized into 2 groups based on their baseline behavior. Par oral dosing b.i.d. was initiated in the evening of Day 56 after MCAO. Behavior testing during dosing periods was started 1 hour after dosing. Blood was collected via saphenous vein just prior to and during treatment phases just after behavioral testing (90 minutes post dosing). All dosing was via gastric gavage, volume not to exceed 2 mL/kg.
Blood sampling: 300 microliter blood sample was collected from the saphenous vein of each animal on Day 56 just prior to the first dose and then exactly 90 min after the 6 dose at each dose level. Blood was collected, centrifuged, stored and analyzed as described in Example 2, above.

[3] = test system: rats with middle cerebral artery occlusion (MCAO); experiment: Forelimb placing test after MCAO; type: in vivo, Sprague Dawley rats
[4] = cited from earlier work

## Nc1ccncc1 [4-AP, 4-aminopyridine]
[1]; Example 2, low (0.63 mg/kg) or high (2 mg/kg) dose b.i.d. p.o., started 4 weeks post MCAO, dose-responsive, reversible
  Effect on hindlimb function (hindlimb placing test): effective to improve hindlimb function; also recorded: significant improvement
[1]; Group 1, D 32 post-MCAO, High 4-AP 2.0 mg/kg b.i.d. p.o., 1 h after 5th dose, group Mean, N=15, 0=normal, 6=maximally impaired
  Hindlimb Placing Total Score: 0.97
[1]; Group 2 mean, D 58 after MCAO, phase 3, high dose (sequence lvh, b238, inferred)
  Hindlimb Placing Total Score: 0.83
[1]; Group 2 mean, D 60 after MCAO, phase 3, high dose (sequence lvh, b238, inferred)
  Hindlimb Placing Total Score: 0.23
[1]; Group 3 mean, D 44 after MCAO, phase 2
  Hindlimb Placing Total Score: 0.90
[1]; Group 3 mean, D 46 after MCAO, phase 2
  Hindlimb Placing Total Score: 0.30
[2]; 0.5 mg/kg, Example 17 dose escalation, Dose Level 0.5 mg/kg b.i.d. p.o., 90 min after 6th dose
  concentration at 90 min: 68.3 ng/mL
[2]; 0.63 mg/kg, Group 1, Phase 2, Low 0.63 mg/kg b.i.d. p.o., 90 min after dosing
  concentration at 90 min: 64 ng/mL
[2]; 0.63 mg/kg, Group 2, Phase 1, Low 0.63 mg/kg b.i.d. p.o., 90 min after dosing
  concentration at 90 min: 78.1 ng/mL
[2]; 0.63 mg/kg, Group 3, Phase 3, Low 0.63 mg/kg b.i.d. p.o., 90 min after dosing
  concentration at 90 min: 61.8 ng/mL
[2]; 1 mg/kg, Example 17 dose escalation, Dose Level 1.0 mg/kg b.i.d. p.o., 90 min after 6th dose
  concentration at 90 min: 114 ng/mL
[2]; 2 mg/kg, Example 17 dose escalation, Dose Level 2.0 mg/kg b.i.d. p.o., 90 min after 6th dose
  concentration at 90 min: 185 ng/mL
[2]; 2 mg/kg, Group 1, Phase 1, High 2.0 mg/kg b.i.d. p.o., 90 min after dosing
  concentration at 90 min: 142 ng/mL
[2]; 2 mg/kg, Group 2, Phase 3, High 2.0 mg/kg b.i.d. p.o., 90 min after dosing
  concentration at 90 min: 144 ng/mL
[2]; 2 mg/kg, Group 3, Phase 2, High 2.0 mg/kg b.i.d. p.o., 90 min after dosing
  concentration at 90 min: 129 ng/mL
[3]; Example 17, 0.5 mg/kg b.i.d. p.o., Day 59 post-MCAO, p<0.001
  Forelimb placing compared to vehicle: significantly improved in forelimb placing
[3]; Example 17, 1 mg/kg b.i.d. p.o., Day 62 post-MCAO, p<0.001
  Forelimb test compared to vehicle: measureable improvement
[3]; Example 17, 2 mg/kg b.i.d. p.o., Day 65 post-MCAO, p<0.0001
  Forelimb function compared to vehicle: significant improvements
[4]; Hayes et al., J. Clin. Pharmacol. 2003
  half life: 1 to 1.5 h
[4]; typical, (94 ng/mL^−1)
  4-AP plasma concentrations obtained in clinical studies: < 1 µM

Reference: patent publication US20160058743A1, “METHODS FOR TREATING SENSORIMOTOR IMPAIRMENTS ASSOCIATED WITH CERTAIN TYPES OF STROKE USING AMINOPYRIDINES” (ACORDA THERAPEUTICS, INC., priority 2013, published 2016)
